Results published in the supplement of paper PMC11061612.

Key:
[1] = test system: U-266 (Plasma Cell Myeloma); test: Bliss excess, mean over the matrix (fraction); higher = more synergy
Outline: (§1)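 Cell lines grown in DMEM/F12 or RPMI with 10% FBS were plated in 1536-well plates and held 24 hours at 37°C, 5% CO2 before 72 hours of exposure to two-drug dose matrices, with DMSO typically at 0.2%. CellTiter-Glo 2.0 luminescence gave viability, which was converted to inhibition. Vehicle wells were set to 0 and blank wells to 1. Combination Emax is the second-highest inhibition in the matrix, and Bliss excess is the observed combination effect minus the expected EA + EB − EA·EB, where EA and EB are the single-agent effects.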

[2] = test system: NB(TU)1-10 (Neuroblastoma); test: as above
Outline: as §1

[3] = test system: LS-513 (Colorectal Carcinoma); test: as above
Outline: as §1

[4] = test system: NB(TU)1-10 (Neuroblastoma); test: combination Emax (second highest fraction inhibited in the dose matrix, 72 h); higher = more inhibition; extreme values may be limits of the assay
Outline: as §1

[5] = test system: NCI-H211 (Small Cell Lung Carcinoma); test: Bliss excess, mean over the matrix (fraction); higher = more synergy
Outline: as §1

[6] = test system: NCI-H211 (Small Cell Lung Carcinoma); test: combination Emax (second highest fraction inhibited in the dose matrix, 72 h); higher = more inhibition; extreme values may be limits of the assay
Outline: as §1
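Throughout, for Bliss excess, mean over the matrix: after 72 h of two-drug dosing.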

## CN(C)CCCOc1ccc(-c2ccc3ncc4c(c3c2)n(C2CCOCC2)c(=O)n4C)cn1 [AZD0156] + C=CCn1c(=O)c2cnc(Nc3ccc(N4CCN(C)CC4)cc3)nc2n1-c1cccc(C(C)(C)O)n1 [AZD1775] (first compound max 1 µM, partner max 1 µM)
[1]
  Bliss excess: 0.0168
[2]
  Bliss excess: 0.014
[3]
  Bliss excess: -0.0448
[4]
  combination Emax: 0.857

## CN(C)CCCOc1ccc(-c2ccc3ncc4c(c3c2)n(C2CCOCC2)c(=O)n4C)cn1 [AZD0156] + CCN(CCO)CCCOc1ccc2c(Nc3cc(CC(=O)Nc4cccc(F)c4)[nH]n3)ncnc2c1 [AZD2811] (first compound max 1 µM, 7x7, partner max 1 µM)
[1]
  Bliss excess: 0.0028
[2]
  Bliss excess: -0.0294
[3]
  Bliss excess: -0.0559
[4]
  combination Emax: 0.292

## CN(C)CCCOc1ccc(-c2ccc3ncc4c(c3c2)n(C2CCOCC2)c(=O)n4C)cn1 [AZD0156] + C[C@@H]1COCCN1C2=NC(=NC(=C2)C3(CC3)[S@](=N)(=O)C)C4=C5C=CNC5=NC=C4 [AZD6738] (first compound max 1 µM, 7x7, partner max 10 µM)
[1]
  Bliss excess: -0.117
[2]
  Bliss excess: -0.0026
[3]
  Bliss excess: 0.0068
[4]
  combination Emax: 0.798

## C=CCn1c(=O)c2cnc(Nc3ccc(N4CCN(C)CC4)cc3)nc2n1-c1cccc(C(C)(C)O)n1 [AZD1775] + C[C@@H]1COCCN1C2=NC(=NC(=C2)C3(CC3)[S@](=N)(=O)C)C4=C5C=CNC5=NC=C4 [AZD6738] (first compound max 1 µM, partner max 10 µM)
[1]
  Bliss excess: 0.0235
[2]
  Bliss excess: 0.0985
[3]
  Bliss excess: -0.0242
[4]
  combination Emax: 0.875

## C=CCn1c(=O)c2cnc(Nc3ccc(N4CCN(C)CC4)cc3)nc2n1-c1cccc(C(C)(C)O)n1 [AZD1775] + O=C(c1cc(Cc2n[nH]c(=O)c3ccccc23)ccc1F)N1CCN(C(=O)C2CC2)CC1 [Olaparib] (first compound max 1 µM, partner max 10 µM)
[1]
  Bliss excess: -0.0775
[2]
  Bliss excess: 0.0461
[3]
  Bliss excess: 0.0008
[4]
  combination Emax: 0.815

## CCN(CCO)CCCOc1ccc2c(Nc3cc(CC(=O)Nc4cccc(F)c4)[nH]n3)ncnc2c1 [AZD2811] + C=CCn1c(=O)c2cnc(Nc3ccc(N4CCN(C)CC4)cc3)nc2n1-c1cccc(C(C)(C)O)n1 [AZD1775] (first compound max 1 µM, partner max 1 µM)
[1]
  Bliss excess: 0.0031
[2]
  Bliss excess: 0.0337
[3]
  Bliss excess: -0.0974
[4]
  combination Emax: 0.881

## CCN(CCO)CCCOc1ccc2c(Nc3cc(CC(=O)Nc4cccc(F)c4)[nH]n3)ncnc2c1 [AZD2811] + C[C@@H]1COCCN1C2=NC(=NC(=C2)C3(CC3)[S@](=N)(=O)C)C4=C5C=CNC5=NC=C4 [AZD6738] (first compound max 1 µM, 7x7, partner max 10 µM)
[1]
  Bliss excess: -0.0532
[2]
  Bliss excess: -0.063
[3]
  Bliss excess: -0.0524
[4]
  combination Emax: 0.756

## CCN(CCO)CCCOc1ccc2c(Nc3cc(CC(=O)Nc4cccc(F)c4)[nH]n3)ncnc2c1 [AZD2811] + O=C(c1cc(Cc2n[nH]c(=O)c3ccccc23)ccc1F)N1CCN(C(=O)C2CC2)CC1 [Olaparib] (first compound max 1 µM, 7x7, partner max 10 µM)
[1]
  Bliss excess: -0.0139
[2]
  Bliss excess: 0.0344
[3]
  Bliss excess: -0.0158
[4]
  combination Emax: 0.257

## C[C@@H]1COCCN1c1cc(C2([S@](C)(=N)=O)CC2)nc(-c2ccnc3[nH]ccc23)n1 [AZD6738] + O=C(c1cc(Cc2n[nH]c(=O)c3ccccc23)ccc1F)N1CCN(C(=O)C2CC2)CC1 [Olaparib] (first compound max 10 µM, 7x7, partner max 10 µM)
[1]
  Bliss excess: 0.0151
[2]
  Bliss excess: 0.0254
[3]
  Bliss excess: 0.0419
[4]
  combination Emax: 0.751

## Cc1cc2ncnn2cc1Nc1ncc2c(n1)n(C1CCOCC1)c(=O)n2C [AZD7648] + C=CCn1c(=O)c2cnc(Nc3ccc(N4CCN(C)CC4)cc3)nc2n1-c1cccc(C(C)(C)O)n1 [AZD1775] (first compound max 10 µM, partner max 1 µM)
[1]
  Bliss excess: -0.0457
[2]
  Bliss excess: -0.062
[3]
  Bliss excess: -0.023
[4]
  combination Emax: 0.824

## Cc1cc2ncnn2cc1Nc1ncc2c(n1)n(C1CCOCC1)c(=O)n2C [AZD7648] + CCN(CCO)CCCOc1ccc2c(Nc3cc(CC(=O)Nc4cccc(F)c4)[nH]n3)ncnc2c1 [AZD2811] (first compound max 10 µM, 7x7, partner max 1 µM)
[1]
  Bliss excess: 0.0204
[2]
  Bliss excess: -0.0403
[3]
  Bliss excess: -0.0033
[4]
  combination Emax: 0.297

## Cc1cc2ncnn2cc1Nc1ncc2c(n1)n(C1CCOCC1)c(=O)n2C [AZD7648] + CN(C)CCCOc1ccc(-c2ccc3ncc4c(c3c2)n(C2CCOCC2)c(=O)n4C)cn1 [AZD0156] (first compound max 10 µM, 7x7, partner max 1 µM)
[1]
  Bliss excess: 0.018
[2]
  Bliss excess: 0.0361
[3]
  Bliss excess: -0.021
[4]
  combination Emax: 0.322

## Cc1cc2ncnn2cc1Nc1ncc2c(n1)n(C1CCOCC1)c(=O)n2C [AZD7648] + C[C@@H]1COCCN1C2=NC(=NC(=C2)C3(CC3)[S@](=N)(=O)C)C4=C5C=CNC5=NC=C4 [AZD6738] (first compound max 10 µM, 7x7, partner max 10 µM)
[1]
  Bliss excess: -0.0168
[2]
  Bliss excess: -0.0214
[3]
  Bliss excess: 0.0641
[4]
  combination Emax: 0.713

## Cc1cc2ncnn2cc1Nc1ncc2c(n1)n(C1CCOCC1)c(=O)n2C [AZD7648] + O=C(c1cc(Cc2n[nH]c(=O)c3ccccc23)ccc1F)N1CCN(C(=O)C2CC2)CC1 [Olaparib] (first compound max 10 µM, 7x7, partner max 10 µM)
[1]
  Bliss excess: -0.0247
[2]
  Bliss excess: -0.0408
[3]
  Bliss excess: -0.0387
[4]
  combination Emax: 0.263

## COc1cccc2c1C(=O)c1c(O)c3c(c(O)c1C2=O)C[C@@](O)(C(=O)CO)C[C@@H]3O[C@H]1C[C@H](N)[C@H](O)[C@H](C)O1 [Doxorubicin] + Cc1cc2ncnn2cc1Nc1ncc2c(n1)n(C1CCOCC1)c(=O)n2C [AZD7648] (first compound max 1 µM, 7x7, partner max 10 µM)
[1]
  Bliss excess: 0.115
[2]
  Bliss excess: 0.0954
[3]
  Bliss excess: 0.057
[4]
  combination Emax: 0.793

## CC(=O)c1c(C)c2cnc(Nc3ccc(N4CCNCC4)cn3)nc2n(C2CCCC2)c1=O [Palbociclib] + Cn1cnc2c(F)c(Nc3ccc(Br)cc3Cl)c(C(=O)NOCCO)cc21 [Selumetinib] (first compound max 10 µM, 7x7, partner max 10 µM)
[1]
  Bliss excess: 0.0393
[3]
  Bliss excess: 0.0207
[5]
  Bliss excess: 0.0861
[6]
  combination Emax: 0.657

## COc1cccc(OCCCN)c1-c1cc(Nc2cnc(C#N)cn2)n[nH]1 [Prexasertib] + C=CCn1c(=O)c2cnc(Nc3ccc(N4CCN(C)CC4)cc3)nc2n1-c1cccc(C(C)(C)O)n1 [AZD1775] (first compound max 1 µM, partner max 1 µM)
[1]
  Bliss excess: -0.0454
[2]
  Bliss excess: -0.0039
[3]
  Bliss excess: 0.0763
[4]
  combination Emax: 0.965

## COc1cccc(OCCCN)c1-c1cc(Nc2cnc(C#N)cn2)n[nH]1 [Prexasertib] + CCc1c2c(nc3ccc(O)cc13)-c1cc3c(c(=O)n1C2)COC(=O)[C@]3(O)CC [SN-38] (first compound max 1 µM, 7x7, partner max 0.3 µM)
[1]
  Bliss excess: -0.0412
[2]
  Bliss excess: -0.0763
[3]
  Bliss excess: -0.0691
[4]
  combination Emax: 0.922

## COc1cccc(OCCCN)c1-c1cc(Nc2cnc(C#N)cn2)n[nH]1 [Prexasertib] + CN(C)CCCOc1ccc(-c2ccc3ncc4c(c3c2)n(C2CCOCC2)c(=O)n4C)cn1 [AZD0156] (first compound max 1 µM, 7x7, partner max 1 µM)
[1]
  Bliss excess: -0.032
[2]
  Bliss excess: -0.0519
[3]
  Bliss excess: 0.0156
[4]
  combination Emax: 0.934

## COc1cccc(OCCCN)c1-c1cc(Nc2cnc(C#N)cn2)n[nH]1 [Prexasertib] + C[C@@H]1COCCN1C2=NC(=NC(=C2)C3(CC3)[S@](=N)(=O)C)C4=C5C=CNC5=NC=C4 [AZD6738] (first compound max 1 µM, 7x7, partner max 10 µM)
[1]
  Bliss excess: -0.0859
[2]
  Bliss excess: -0.141
[3]
  Bliss excess: -0.0183
[4]
  combination Emax: 0.94

## COc1cccc(OCCCN)c1-c1cc(Nc2cnc(C#N)cn2)n[nH]1 [Prexasertib] + Cc1cc2ncnn2cc1Nc1ncc2c(n1)n(C1CCOCC1)c(=O)n2C [AZD7648] (first compound max 1 µM, 7x7, partner max 10 µM)
[1]
  Bliss excess: -0.0518
[2]
  Bliss excess: -0.0498
[3]
  Bliss excess: -0.0509
[4]
  combination Emax: 0.94

## COc1cccc(OCCCN)c1-c1cc(Nc2cnc(C#N)cn2)n[nH]1 [Prexasertib] + O=C(c1cc(Cc2n[nH]c(=O)c3ccccc23)ccc1F)N1CCN(C(=O)C2CC2)CC1 [Olaparib] (first compound max 1 µM, 7x7, partner max 10 µM)
[1]
  Bliss excess: -0.0895
[2]
  Bliss excess: -0.0874
[3]
  Bliss excess: -0.0666
[4]
  combination Emax: 0.885

## C[C@@H](c1ccc2nccn2c1)n1nnc2ncc(-c3cnn(C)c3)nc21 [Savolitinib] + CC1(C)CCC(CN2CCN(c3ccc(C(=O)NS(=O)(=O)c4ccc(NCC5CCOCC5)c([N+](=O)[O-])c4)c(Oc4cnc5[nH]ccc5c4)c3)CC2)=C(c2ccc(Cl)cc2)C1 [Venetoclax] (first compound max 1 µM, 7x7, partner max 1 µM)
[1]
  Bliss excess: -0.0118
[3]
  Bliss excess: -0.0599
[5]
  Bliss excess: 0.0317
[6]
  combination Emax: 0.744

## C[C@@H](c1ccc2nccn2c1)n1nnc2ncc(-c3cnn(C)c3)nc21 [Savolitinib] + Cc1c2c(nn1C)CSCc1cc(n(C)n1)CSc1cc(c3ccccc3c1)OCCCc1c(C(=O)O)n(C)c3c-2c(Cl)ccc13 [AZD5991] (first compound max 1 µM, 7x7, partner max 1 µM)
[1]
  Bliss excess: -0.0655
[3]
  Bliss excess: -0.0219
[5]
  Bliss excess: 0.033
[6]
  combination Emax: 0.859

## Cn1cnc2c(F)c(Nc3ccc(Br)cc3Cl)c(C(=O)NOCCO)cc21 [Selumetinib] + C=CCn1c(=O)c2cnc(Nc3ccc(N4CCN(C)CC4)cc3)nc2n1-c1cccc(C(C)(C)O)n1 [AZD1775] (first compound max 10 µM, partner max 1 µM)
[1]
  Bliss excess: 0.0598
[3]
  Bliss excess: -0.0339
[5]
  Bliss excess: 0.0248
[6]
  combination Emax: 0.831

## Cn1cnc2c(F)c(Nc3ccc(Br)cc3Cl)c(C(=O)NOCCO)cc21 [Selumetinib] + CC(C)n1c(=O)n(C)c2cnc3cc(F)c(-c4ccc(OCCCN5CCCCC5)nc4)cc3c21 [AZD1390] (first compound max 10 µM, 7x7, partner max 0.3 µM)
[1]
  Bliss excess: -0.0413
[3]
  Bliss excess: -0.0395
[5]
  Bliss excess: -0.0015
[6]
  combination Emax: 0.239

## Cn1cnc2c(F)c(Nc3ccc(Br)cc3Cl)c(C(=O)NOCCO)cc21 [Selumetinib] + CCN(CCO)CCCOc1ccc2c(Nc3cc(CC(=O)Nc4cccc(F)c4)[nH]n3)ncnc2c1 [AZD2811] (first compound max 10 µM, 7x7, partner max 1 µM)
[1]
  Bliss excess: 0.0128
[3]
  Bliss excess: -0.0184
[5]
  Bliss excess: -0.0446
[6]
  combination Emax: 0.938

## Cn1cnc2c(F)c(Nc3ccc(Br)cc3Cl)c(C(=O)NOCCO)cc21 [Selumetinib] + C[C@@H]1COCCN1C2=NC(=NC(=C2)C3(CC3)[S@](=N)(=O)C)C4=C5C=CNC5=NC=C4 [AZD6738] (first compound max 10 µM, 7x7, partner max 10 µM)
[1]
  Bliss excess: -0.0303
[3]
  Bliss excess: 0.0046
[5]
  Bliss excess: -0.0285
[6]
  combination Emax: 0.606
